Laboratory results as given in patent publication US10682333B2, “Composition for inhibiting formation of SNARE complex, containing myricetin derivatives” (RESEARCH & BUSINESS FOUNDATION SUNGKYUNKWAN UNIVERSITY, priority 2015, dated 2020).
Read-outs that look alike come from different tables or passages of the source.

Assays:
PCl2 cells [1] = assay: Intracellular bioconversion into myricetin in PCl2 cells (HPLC); assay type: in vitro ADME; conditions: within 1 hour
Experimental: A rate of bioconversion of the myricetin derivative prepared by acylation with acetic acid into myricetin in vivo was determined.
After the cells were completely washed, the cells were treated with trypsin to collect trypsin-attached cells, and trypsin was removed therefrom to obtain only pure cells. The cells were suspended in 100 μl of tetrahydrofuran, followed by disruption through sonication, and then only tetrahydrofuran in which materials in the cells were lysed was collected. Subsequently, only myricetin in the recovered purified liquid was analyzed by high-performance liquid chromatography (HPLC) to examine whether the myricetin derivative prepared by acylation using acetic acid was converted into myricetin, and the results thereof are illustrated in FIG. 15.

PCl2 cells [2] = assay: [3H] norepinephrine release from PCl2 cells (liquid scintillation); assay type: cell-based; conditions: for inhibition of release of [3H] norepinephrine: Krebs' buffer with high K+
Experimental: The first method is as follows. […] After thorough washing, the PCl2 cells were washed four times with the culture medium for 15 minutes each. […] The medium was replaced with Krebs' buffer with high K^+, followed by culturing for 10 minutes, to collect samples. The collected samples were subjected to radiation measurement using a liquid scintillation counter.

[3] = Solubility in canola oil and mineral oil; assay type: physicochemical
Experimental: In the present experimental example, in view of the fact that in Example 4, myricetin underwent various changes in properties during synthesis of a myricetin derivative, in which all hydroxyl groups of myricetin were acylated by palmitic acid, the solubilities of the myricetin derivative in an organic solvent, or in a commercially available liposoluble cosmetic, food product, or the like were measured.
In particular, the myricetin derivative was dissolved in canola oil and mineral oil at a ratio of 1 mg/l ml. The results thereof are illustrated in FIG. 13.

[4] = Examination of color of myricetin derivatives by degree of acylation; assay type: physicochemical; conditions: degree of acylation by palmitic acid
From the text: In the present experimental example, whether a disadvantage of myricetin that a too dark intrinsic color thereof causes the skin to be stained can be addressed through making changes in properties using myricetin derivatives according to the present invention was examined.
As a result, it was observed that as a degree to which a hydroxyl group of myricetin was acylated by palmitic acid, i.e., the degree of acylation, increased, colors of the myricetin derivatives were changed, unlike conventional myricetin. In particular, it was observed that the myricetin derivative obtained in Example 3, in which one hydroxyl group of myricetin was acylated by palmitic acid, had yellow color, which is an intrinsic color of myricetin (see FIG. 12A), whereas the myricetin derivative obtained in Example 4, in which all hydroxyl groups of myricetin were acylated by palmitic acid, had white color (see FIG. 12B).

[5] = molecular target: T1, SNARE complex (Syntaxin 1A-CFP, VAMP2-YFP) in PCl2 cells (UniProt P60881+P63027+Q16623); assay: In vivo (cell) SNARE function screen: FRET C and NPY release in PCl2 cells; assay type: cell-based
T1 construct: expressed in transfected cells
T1 sequence (Q16623 whole entry): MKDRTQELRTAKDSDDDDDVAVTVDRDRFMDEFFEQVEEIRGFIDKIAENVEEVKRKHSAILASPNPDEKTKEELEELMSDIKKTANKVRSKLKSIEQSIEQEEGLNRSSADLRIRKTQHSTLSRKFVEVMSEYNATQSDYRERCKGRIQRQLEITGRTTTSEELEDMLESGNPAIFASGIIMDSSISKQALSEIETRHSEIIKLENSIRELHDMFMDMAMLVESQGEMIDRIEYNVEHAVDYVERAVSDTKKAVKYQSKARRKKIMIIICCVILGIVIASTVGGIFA
T1 sequence (P63027 whole entry): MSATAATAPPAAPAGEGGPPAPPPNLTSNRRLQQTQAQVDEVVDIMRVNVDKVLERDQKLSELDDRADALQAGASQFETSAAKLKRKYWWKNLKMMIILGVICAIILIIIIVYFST
T1 sequence (P60881 whole entry): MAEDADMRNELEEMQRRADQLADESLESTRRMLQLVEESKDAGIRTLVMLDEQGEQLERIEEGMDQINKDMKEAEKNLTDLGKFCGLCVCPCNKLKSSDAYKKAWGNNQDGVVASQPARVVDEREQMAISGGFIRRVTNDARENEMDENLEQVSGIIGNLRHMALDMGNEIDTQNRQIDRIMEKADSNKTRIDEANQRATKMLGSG

SNARE complexes [6] = molecular target: T2, SNARE complexes (Homo sapiens, UniProt P60880+P63027+Q16623); assay: Immunoblotting of SDS-resistant SNARE complexes, in vivo; assay type: cell-based; conditions: SDS-PAGE
T2 sequence (Q16623 whole entry): as the sequence (Q16623 whole entry) above
T2 sequence (P60880 whole entry): as the sequence (P60881 whole entry) above
T2 sequence (P63027 whole entry): as the sequence (P63027 whole entry) above
From the text: (§1) The above characteristics were clearly confirmed by immunoblotting of SNARE complexes (see FIG. 2B). SNARE complexes are known to have SDS-resistance, and based on these characteristics, immunoblotting using SDS-PAGE is generally used to identify the formation of SNARE complexes.

[7] = Light stability under UV, color observed with the naked eye over time; assay type: physicochemical; conditions: UV lamp
Experimental: It was examined whether myricetin, and laricitrin and syringetin, which are naturally occurring myricetin derivatives, were denatured when exposed to UV. First, each myricetin derivative (MP, 1 mg/1.34 g), prepared by reacting myricetin (M, 1 mg/1.34 g) and palmitic acid, was uniformly mixed in a commercially available sunblock cream (Kolmar Korea, NoTS UV protection sunscreen cream, 1.34 g), and the mixture was applied on a cover glass, followed by irradiation for 24 hours with UV having an intensity of 253.7 nM using a UV lamp.

[8] = molecular target: SNARE-mediated membrane fusion (Homo sapiens, UniProt P60880+P63027+Q16623); assay: In vitro membrane fusion by FRET on dye-labelled lipid bilayer membrane; assay type: biochemical; conditions: artificial lipid bilayer membrane
SNARE-mediated membrane fusion, sequence (Q16623 whole entry, the tested form may be a part): as the sequence (Q16623 whole entry) above
SNARE-mediated membrane fusion, sequence (P60880 whole entry, the tested form may be a part): as the sequence (P60881 whole entry) above
SNARE-mediated membrane fusion, sequence (P63027 whole entry, the tested form may be a part): as the sequence (P63027 whole entry) above

[9] = Light stability under UV, DMSO solution mixed with zinc oxide; assay type: physicochemical; conditions: 1 mg/ml DMSO with zinc oxide, UV 2 hours
Experimental: First, 1 mg of each of myricetin and the myricetin derivatives were dissolved in 1 ml of dimethyl sulfoxide (DMSO), followed by mixing with zinc oxide having high reactivity with a hydroxyl group of myricetin. The resulting mixed solution was applied, as 100 μl drops, on 3M paper, and irradiated for 2 hours with UV light having an intensity of 253.7 nM using a UV lamp. As negative controls, untreated DMSO and a mixed solution of untreated DMSO and zinc oxide were used.

SNARE complexes [10] = molecular target: T2, SNARE complexes; assay: Immunoblotting of SDS-resistant SNARE complexes, in vitro; assay type: biochemical; conditions: SDS-PAGE
From the text: as §1

Row | Compound | inhibition of release of [3H] norepinephrine (PCl2 cells [2]) | in vivo functions (FRET C, NPY release) [5] | formation of SNARE complexes in vivo (SNARE complexes [6]) | color change on UV irradiation compared to myricetin [7] | time after UV irradiation at which color turned brown [7] | further results
1 | CC(=O)Oc1cc(OC(C)=O)c2c(=O)c(OC(C)=O)c(-c3cc(OC(C)=O)c(OC(C)=O)c(OC(C)=O)c3)oc2c1 [MA] | comparable or slightly better activity |  |  |  |  | fraction bioconverted into myricetin (PCl2 cells [1]): 3%
2 | CCCCCCCCCCCCCCCC(=O)Oc1cc(OC(=O)CCCCCCCCCCCCCCC)c2c(=O)c(OC(=O)CCCCCCCCCCCCCCC)c(-c3cc(OC(=O)CCCCCCCCCCCCCCC)c(OC(=O)CCCCCCCCCCCCCCC)c(OC(=O)CCCCCCCCCCCCCCC)c3)oc2c1 [MP] |  |  |  |  |  | solubility in canola oil [3]: liposoluble; solubility in mineral oil [3]: liposoluble; color of the substance [4]: white color
3 | COc1cc(O)c2c(=O)c(OC)c(-c3cc(OC)c(OC)c(OC)c3)oc2c1 [combretol] |  | 40-45 % of the control | decreasing tendency only in vivo |  |  | 
4 | COc1cc(-c2oc3cc(O)cc(O)c3c(=O)c2O)cc(O)c1O [laricitrin] | highest reactivity | 40-45 % of the control | decreasing tendency only in vivo | did not show clear color changes | 60 min | activity of inhibiting [3H] norepinephrine release compared to conventional myricetin (PCl2 cells [2]; 20 μM): at least two-fold improved activity
5 | O=c1c(O)c(-c2cc(O)c(O)c(O)c2)oc2cc(O)cc(O)c12 [myricetin] | concentration-dependent manner |  | decreasing tendency |  | 5 min | in vivo functions (FRET C, NPY release) ([5]; PCl2 cells): ≤ 40 % of the control; solubility in canola oil ([3]; 1 mg/1 ml): insoluble; solubility in mineral oil ([3]; 1 mg/1 ml): insoluble; in vitro functions (membrane fusion) [8]: ≤ 40 % of the control; time after UV irradiation at which color turned dark brown (complete oxidation) [7]: 30 min; color change on UV exposure [9]: color changes over time; formation of SNARE complexes in vitro (SNARE complexes [10]): decreasing tendency
6 | COc1cc(-c2oc3cc(O)cc(O)c3c(=O)c2O)cc(OC)c1O [syringetin] |  |  | decreasing tendency only in vivo | did not show clear color changes | 240 min | 
